14 compounds from ChEMBL document CHEMBL5126521, “Analgesic Opioid Ligand Discovery Based on Nonmorphinan Scaffolds Derived from Natural Sources” (J Med Chem, 2022) can be followed below.

The structures appear in SMILES notation.

Series [1] concerns the target T1, Mu-type opioid receptor (Homo sapiens, UniProt P35372). Briefly: Displacement of [3H]DAMGO from MOP (unknown origin) stably expressed in CHO cell membrane incubated for 90 mins by scintillation counter analysis. In kind it is cell membranes.
Series [2] addresses T2, Delta-type opioid receptor (Homo sapiens, UniProt P41143). Nature of the series: Displacement of [3H]DPDPE from DOP (unknown origin) stably expressed in CHO cell membrane incubated for 90 mins by scintillation counter analysis. The class given is cell membranes.
For series [3], the target named is T3, Kappa-type opioid receptor (Homo sapiens, UniProt P41145). Nature of the series: Displacement of [3H]diprenorphine from KOP (unknown origin) stably expressed in CHO cell membrane incubated for 90 mins by scintillation counter analysis. The class given is cell membranes.
T3 sequence (P41145 whole entry): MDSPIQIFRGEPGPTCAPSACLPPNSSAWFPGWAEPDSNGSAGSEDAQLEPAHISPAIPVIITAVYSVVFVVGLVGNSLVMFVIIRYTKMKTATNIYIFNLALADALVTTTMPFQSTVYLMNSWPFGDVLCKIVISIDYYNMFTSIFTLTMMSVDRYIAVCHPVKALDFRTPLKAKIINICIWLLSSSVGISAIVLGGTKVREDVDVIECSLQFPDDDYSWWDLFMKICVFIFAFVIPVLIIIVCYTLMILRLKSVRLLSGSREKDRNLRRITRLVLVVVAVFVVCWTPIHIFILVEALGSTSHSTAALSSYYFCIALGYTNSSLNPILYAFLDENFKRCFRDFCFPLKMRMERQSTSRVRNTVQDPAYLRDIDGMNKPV
Series [4] relates to Mus musculus. Briefly: Antinociceptive activity in icv dosed C57BL/6J mouse assessed as tail withdrawal latency from warm water. In kind it is functional.
Series [5] has as its target T1, Mu-type opioid receptor. Briefly: Displacement of [3H]DAMGO from MOP (unknown origin) stably expressed in HEK293 cells by liquid scintillation counter analysis. The class given is cell-based.
For series [6], the target named is T2, Delta-type opioid receptor. Briefly: Displacement of [3H]DPDPE from DOP (unknown origin) stably expressed in HEK293 cells by liquid scintillation counter analysis. In kind it is cell-based.
In series [7] the target is T1, Mu-type opioid receptor. Nature of the series: Agonist activity at MOP (unknown origin) stably expressed in HEK293 cells assessed as forskolin stimulated cAMP accumulation incubated for 30 mins by radioactivity based scintillation counter analysis. The class given is functional, cell-based.
For series [8], the target named is T1, Mu-type opioid receptor. Nature of the series: Agonist activity at MOP (unknown origin) stably expressed in HEK293 cells assessed as forskolin stimulated cAMP accumulation incubated for 30 mins by radioactivity based scintillation counter analysis relative to control. Conditions: filed as agonist. In kind it is functional, cell-based.
Series [9] in a line: Stability in mouse serum assessed as half life. The class given is ADME, cell-free.
Series [10] can be described thus: Stability in mouse brain homogenate assessed as half life. In kind it is ADME, tissue-based.
The target in series [11] is Mu-type opioid receptor (Cavia porcellus, UniProt P97266). Briefly: Antagonist activity at guinea pig ileum MOP. The class given is functional, tissue-based.
Mu-type opioid receptor (Cavia porcellus, UniProt P97266), sequence (P97266 whole entry): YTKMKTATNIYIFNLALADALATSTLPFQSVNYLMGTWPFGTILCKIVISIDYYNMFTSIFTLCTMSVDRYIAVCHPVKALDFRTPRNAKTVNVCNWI
For series [12], the system named is Mus musculus. Nature of the series: Antinociceptive activity in mouse administered icv. The class given is functional.
Series [13] is filed under the species Mus musculus. Nature of the series: Antinociceptive activity in mouse by tail pressure test. The class given is functional. Conditions: Mus musculus; read-out: ED50.
A short description of series [14]: Half life in mouse liver microsomes. In kind it is ADME, Microsome.
The nature of series [15]: Toxicity in icv dosed C57BL/6J mouse assessed as antinociceptive activity tolerance. In kind it is organism-based. Conditions: in vivo, icv_or_intrathecal.
The test system of series [16] is Mus musculus. Briefly: Antinociceptive activity in po dosed C57BL/6J mouse assessed as tail withdrawal latency from warm water. The class given is functional.
The target of series [17] is T2, Delta-type opioid receptor. Briefly: Binding affinity to DOP (unknown origin).
In series [18] the target is T2, Delta-type opioid receptor. Nature of the series: Inhibition of DOP (unknown origin).
The target in series [19] is T3, Kappa-type opioid receptor. Briefly: Inhibition of KOP (unknown origin).
The next series relates to Rattus norvegicus. Nature of the series: Antinociceptive activity in rat administered icv by tail pressure test relative to control. In kind it is functional. Further details: concentration or dose not given beside the values.

T1 sequence (P35372 whole entry): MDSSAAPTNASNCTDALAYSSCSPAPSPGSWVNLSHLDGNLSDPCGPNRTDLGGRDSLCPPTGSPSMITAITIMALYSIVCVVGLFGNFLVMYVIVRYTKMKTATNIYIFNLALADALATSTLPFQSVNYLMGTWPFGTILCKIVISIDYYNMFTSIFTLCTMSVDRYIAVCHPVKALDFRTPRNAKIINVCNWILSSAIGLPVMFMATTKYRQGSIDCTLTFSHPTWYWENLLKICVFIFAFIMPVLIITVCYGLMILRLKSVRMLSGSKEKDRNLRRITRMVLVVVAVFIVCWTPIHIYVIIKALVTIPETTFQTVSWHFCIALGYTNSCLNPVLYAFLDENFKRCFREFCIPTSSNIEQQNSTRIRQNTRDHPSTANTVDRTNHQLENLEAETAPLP
T2 sequence (P41143 whole entry): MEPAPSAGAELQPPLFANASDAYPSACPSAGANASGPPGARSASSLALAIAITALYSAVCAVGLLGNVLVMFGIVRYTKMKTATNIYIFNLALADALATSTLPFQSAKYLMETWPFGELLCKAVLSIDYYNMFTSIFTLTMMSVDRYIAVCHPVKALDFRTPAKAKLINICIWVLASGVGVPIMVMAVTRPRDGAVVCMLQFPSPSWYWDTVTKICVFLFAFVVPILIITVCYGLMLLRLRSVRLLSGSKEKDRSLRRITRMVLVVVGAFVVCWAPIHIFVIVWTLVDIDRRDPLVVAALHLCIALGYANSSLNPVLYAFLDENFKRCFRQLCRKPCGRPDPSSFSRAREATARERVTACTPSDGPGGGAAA

On to `C[C@@H]1NC(=O)[C@H](Cc2c[nH]c3ccccc23)NC(=O)[C@H](Cc2ccccc2)NC(=O)[C@H]2CCCN2C1=O`, for which the results for the inhibitory constant (Ki) (on Mu-type opioid receptor [1]; in series [2]; in series [3]) were 32.2 nM, 8680 nM and 8 nM, respectively. In addition, the ED50 in the series on Mus musculus [4] stood at 1.49 nmol.

Turning to `C=C(C(N)=O)[C@@H](NC(=O)[C@H](Cc1ccccc1)NC(=O)[C@@H](C)N(C)C(=O)[C@@H](N)Cc1c(C)cc(O)cc1C)c1ccco1`, the values for the Ki (at Mu-type opioid receptor [5]; in series [6]) were 0.014 nM and 47.2 nM, respectively. For the same compound, at Mu-type opioid receptor [7], the half-maximal effective concentration (EC50) was found to be 0.00201 nM. Also, the Emax on Mu-type opioid receptor [8] worked out at 96.9%. Besides, the half-life in series [9] and in series [10] was not below 300 min throughout.

For `N=C(N)NCCC[C@@H](NC(=O)[C@@H](N)Cc1ccc(O)cc1)C(=O)N[C@@H](Cc1ccccc1)C(=O)NCC(=O)N[C@@H](Cc1ccc(O)cc1)C(=O)N1CCC[C@H]1C(N)=O`, on Mu-type opioid receptor [11], it took 190 nM to reach half-maximal inhibition (IC50). Further, the ED50 in the series on Mus musculus [12] was 12.5 pmol.

In the case of `N=C(N)NCCC[C@@H](NC(=O)[C@@H](N)Cc1ccc(O)cc1)C(=O)N[C@@H](Cc1ccccc1)C(=O)NCC(=O)N[C@@H](Cc1ccc(O)cc1)C(=O)N1CCC[C@H]1C(=O)N[C@@H](CO)C(N)=O`, the midpoint of inhibition at Mu-type opioid receptor [11], the IC50, lay at 90 nM. In addition, the values for the ED50 in the series listed under Mus musculus [13] and in the series with Mus musculus [12] were 3.5 mg/kg and 23 pmol, respectively.

With `C[C@@H]1NC(=O)[C@H](Cc2ccccc2)NC(=O)[C@H]2CCCN2C(=O)[C@H](Cc2ccccc2)NC1=O`, the inhibition constant Ki was 687 nM at Mu-type opioid receptor [1], more than 10000 nM in series [2] and 1550 nM in [3]. Besides, the ED50 with Mus musculus [4] was found to be 6.97 nmol.

As for `O=C1N[C@H](Cc2ccccc2)C(=O)N2CCC[C@@H]2C(=O)N[C@H](Cc2ccccc2)C(=O)N[C@H]1Cc1c[nH]c2ccccc12`, the half-life in [14] was not above 30 min. Further, the ED50 in series [15] is 5.19 nmol; in the series with Mus musculus [4], 1 nmol; with Mus musculus [16], 4.12 mg/kg.

Take `O=C1N[C@H](Cc2ccccc2)C(=O)N2CCC[C@@H]2C(=O)N[C@@H](Cc2ccccc2)C(=O)N[C@H]1Cc1c[nH]c2ccccc12`: the half-life in [14] turned out to be 54 min. On Mu-type opioid receptor [1], this compound showed a Ki of more than 100000 nM. The ED50 stood at 20.3 nmol in series [15], 0.75 nmol with Mus musculus [4] and 7.62 mg/kg in the series on Mus musculus [16].

`CC[C@H]1CN2CCc3c([nH]c4cccc(OC)c34)[C@@H]2C[C@@H]1/C(=C\OC)C(=O)OC`: the Ki in series [17] was more than 10000 nM. The IC50 is more than 10000 nM in series [18] and 10000 nM in [19].

Regarding `O=C1N[C@@H](Cc2ccccc2)C(=O)N2CCC[C@@H]2C(=O)N[C@@H](Cc2ccccc2)C(=O)N[C@H]1Cc1c[nH]c2ccccc12`, in series [14], the half-life came to 49 min. For the same compound, the ED50 in [15] came to 5.23 nmol; with Mus musculus [4], 1.74 nmol.

Compound `C[C@@H](NC(=O)[C@@H](N)Cc1ccc(O)cc1)C(=O)N[C@@H](Cc1ccccc1)C(=O)NCC(=O)N[C@@H](Cc1ccc(O)cc1)C(=O)N1CCC[C@H]1C(=O)N[C@@H](CO)C(N)=O` registered an Activity in the series with Rattus norvegicus of less than 0.05%.

Compound `N=C(N)NCCC[C@@H](NC(=O)[C@@H](N)Cc1ccc(O)cc1)C(=O)N[C@@H](Cc1ccccc1)C(=O)NCC(=O)N[C@@H](Cc1ccc(O)cc1)C(N)=O` had an IC50 against Mu-type opioid receptor [11] of 160 nM. Moreover, in the series with Mus musculus [12], the ED50 was determined as 20.2 pmol.

Regarding `C[C@@H]1C(=O)N[C@@H](Cc2ccccc2)C(=O)N[C@@H](Cc2c[nH]c3ccccc23)C(=O)N[C@@H](Cc2ccccc2)C(=O)N1C`, the Ki was found to be 140 nM at Mu-type opioid receptor [1], 1370 nM in series [2] and 113 nM in series [3]. The ED50 with Mus musculus [4] is 2.43 nmol.

`CC[C@@H]1CN2CCc3c([nH]c4cccc(OC)c34)[C@H]2C[C@@H]1/C(=C\OC)C(=O)OC` gave a Ki in [17] of more than 10000 nM. For the same compound, the results for the IC50 in series [18] and in series [19] were more than 10000 nM and 10000 nM, respectively.

In turn, `O=C1N[C@@H](Cc2ccccc2)C(=O)N2CCC[C@@H]2C(=O)N[C@H](Cc2ccccc2)C(=O)N[C@H]1Cc1c[nH]c2ccccc12` gave a half-life in series [14] not above 30 min. Also, the ED50 in [15] was determined as 125 nmol; with Mus musculus [4] it was 20.4 nmol.
